Measurements reported in patent US20230085307A1, “PYRIDAZINONE COMPOUND AND HERBICIDE” (NISSAN CHEMICAL CORPORATION, priority 2019, published 2023).

Legend:
velvetleaf [1] = experiment: Test Example 5: herbicidal effect by foliage application, plastic box (Table 20, symbol M); type: in vivo, velvetleaf (Abutilon theophrasti); conditions: foliage application, 320 g/ha, three weeks after application
Outline: (§1)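 Plants were sown into sterilized diluvial soil under about 1.5 cm cover and kept in a greenhouse at 25° C. to 30° C. Fourteen days on, foliage received an even spray of the diluted emulsion. Herbicidal or crop effect was judged three weeks afterwards.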

Chinese sprangletop = experiment: Test Example 3: herbicidal effect by foliage application, Wagner pot (Table 18, symbol D); type: in vivo, chinese sprangletop (Leptochloa chinensis); conditions: amount of applied herbicide 320 g/ha
Outline: (§2)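 Plants were sown in alluvial soil held under 0.1–0.5 cm standing water and grown 14 days in a greenhouse at 25–30 °C. An emulsifiable formulation, water-diluted to the set dose, was then sprayed onto the foliage, and effects were scored three weeks later using previously defined criteria.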

rice flat sedge = experiment: Test Example 3: herbicidal effect by foliage application, Wagner pot (Table 18, symbol E); type: in vivo, rice flat sedge (Cyperus iria); conditions: amount of applied herbicide 320 g/ha
Outline: as §2

Italian ryegrass = experiment: Test Example 5: herbicidal effect by foliage application, plastic box (Table 20, symbol K); type: in vivo, Italian ryegrass (Lolium multiflorum); conditions: foliage application, 320 g/ha, three weeks after application
Outline: as §1

persian speedwell [2] = experiment: Test Example 4: herbicidal effect by soil treatment (Table 19, symbol R); type: in vivo, Persian speedwell (Veronica persica); conditions: amount of applied herbicide 320 g/ha
Outline: (§3)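 Pre-emergence style soil spray: seeds under ~1.5 cm sterilized diluvial soil received a uniform coat of emulsion diluted to the predetermined herbicide amount. Greenhouse 25–30° C; readout at week three on previously defined criteria.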

oval-leafed pondweed = experiment: Test Example 1: herbicidal activity, application before weed generation under submerged conditions (Table 16, symbol C); type: in vivo, oval-leafed pondweed (Monochoria vaginalis); conditions: amount of applied herbicide 320 g/ha
Outline: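 Alluvial soil was flooded to 4 cm depth, weed seeds were sown mixed and 2.5-leaf rice seedlings were transplanted. On sowing day, the compound's emulsion, diluted in water to a set dose, was applied to the water surface. Plants grew at 25–30 °C and were scored 0–5 after three weeks.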

persian speedwell [3] = experiment: Test Example 5: herbicidal effect by foliage application, plastic box (Table 20, symbol R); type: in vivo, Persian speedwell (Veronica persica); conditions: foliage application, 320 g/ha, three weeks after application
Outline: as §1

green foxtail = experiment: Test Example 4: herbicidal effect by soil treatment (Table 19, symbol G); type: in vivo, green foxtail (Setaria viridis); conditions: amount of applied herbicide 320 g/ha
Outline: as §3

barnyard grass = experiment: Test Example 3: herbicidal effect by foliage application, Wagner pot (Table 18, symbol H); type: in vivo, barnyard grass (Echinochloa crus-galli); conditions: amount of applied herbicide 320 g/ha
Outline: as §2

windgrass [4] = experiment: Test Example 4: herbicidal effect by soil treatment (Table 19, symbol L); type: in vivo, windgrass (Apera spica-venti); conditions: amount of applied herbicide 320 g/ha
Outline: as §3

late watergrass = experiment: Test Example 2: herbicidal activity, application during weed generation under submerged conditions (Table 17, symbol A); type: in vivo, late watergrass (Echinochloa oryzicola); conditions: AAH 320 g/ha; application during weed generation, submerged conditions
Outline: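 Herbicide emulsion, diluted with water to the chosen amount, is applied onto 4 cm floodwater over alluvial soil where the weeds were co-sown and raised at 25–30° C. Application timing: 1–2 leaves. Assessment: three weeks afterwards.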

lambsquarters [5] = experiment: Test Example 5: herbicidal effect by foliage application, plastic box (Table 20, symbol O); type: in vivo, lambsquarters (Chenopodium album); conditions: foliage application, 320 g/ha, three weeks after application
Outline: as §1

velvetleaf [6] = experiment: Test Example 4: herbicidal effect by soil treatment (Table 19, symbol M); type: in vivo, velvetleaf (Abutilon theophrasti); conditions: amount of applied herbicide 320 g/ha
Outline: as §3

lambsquarters [7] = experiment: Test Example 4: herbicidal effect by soil treatment (Table 19, symbol O); type: in vivo, lambsquarters (Chenopodium album); conditions: amount of applied herbicide 320 g/ha
Outline: as §3

southern crabgrass = experiment: Test Example 5: herbicidal effect by foliage application, plastic box (Table 20, symbol F); type: in vivo, southern crabgrass (Digitaria ciliaris); conditions: foliage application, 320 g/ha, three weeks after application
Outline: as §1

chickweed = experiment: Test Example 4: herbicidal effect by soil treatment (Table 19, symbol P); type: in vivo, common chickweed (Stellaria media); conditions: amount of applied herbicide 320 g/ha
Outline: as §3

windgrass [8] = experiment: Test Example 5: herbicidal effect by foliage application, plastic box (Table 20, symbol L); type: in vivo, windgrass (Apera spica-venti); conditions: foliage application, 320 g/ha, three weeks after application
Outline: as §1

SMILES | herbicidal effect on velvetleaf (M) (velvetleaf [1]) | Herbicidal effect on D (Chinese sprangletop), foliage application (Chinese sprangletop) | Herbicidal effect on E (rice flat sedge), foliage application (rice flat sedge) | herbicidal effect on Italian ryegrass (K) (Italian ryegrass) | R: persian speedwell, herbicidal effect grade (persian speedwell [2]) | Herbicidal effect, C: oval-leafed pondweed (oval-leafed pondweed) | herbicidal effect on persian speedwell (R) (persian speedwell [3]) | G: green foxtail, herbicidal effect grade (green foxtail) | Herbicidal effect on H (barnyard grass), foliage application (barnyard grass) | L: windgrass, herbicidal effect grade (windgrass [4]) | herbicidal effect rating, A: late watergrass (late watergrass) | herbicidal effect on lambsquarters (O) (lambsquarters [5]) | M: velvetleaf, herbicidal effect grade (velvetleaf [6]) | O: lambsquarters, herbicidal effect grade (lambsquarters [7]) | herbicidal effect on southern crabgrass (F) (southern crabgrass) | P: chickweed, herbicidal effect grade (chickweed) | herbicidal effect on windgrass (L) (windgrass [8])
C=CCOc1ccc(-c2oc3ccccc3c2-c2c(O)c(C)nn(C)c2=O)cc1 [8-004] | 2 (Herbicidal rate of 20% or more and less than 40%) | 3 (Herbicidal rate of 40% or more and less than 70%) | 4 (Herbicidal rate of 70% or more and less than 90%) | 4 (Herbicidal rate of 70% or more and less than 90%) | 3 (Herbicidal rate of 40% or more and less than 70%) | 4 (Herbicidal rate of 70% or more and less than 90%) | 5 (Herbicidal rate of 90% or more (almost completely withered)) | 3 (Herbicidal rate of 40% or more and less than 70%) | 5 (Herbicidal rate of 90% or more (almost completely withered)) | 0 (Herbicidal rate of 5% or less (almost no effect)) | 3 (Herbicidal rate of 40% or more and less than 70%) | 3 (Herbicidal rate of 40% or more and less than 70%) | 2 (Herbicidal rate of 20% or more and less than 40%) | 2 (Herbicidal rate of 20% or more and less than 40%) | 4 (Herbicidal rate of 70% or more and less than 90%) | 1 (Herbicidal rate of 5% or more and less than 20%) | 4 (Herbicidal rate of 70% or more and less than 90%)
Cc1ccc2oc(-c3ccc4c(c3)OCCO4)c(-c3c(O)c(C)nn(C)c3=O)c2c1 [9-012] | 5 (Herbicidal rate of 90% or more (almost completely withered)) | 0 (Herbicidal rate of 5% or less (almost no effect)) | 5 (Herbicidal rate of 90% or more (almost completely withered)) | 5 (Herbicidal rate of 90% or more (almost completely withered)) | 4 (Herbicidal rate of 70% or more and less than 90%) | 5 (Herbicidal rate of 90% or more (almost completely withered)) | 5 (Herbicidal rate of 90% or more (almost completely withered)) | 3 (Herbicidal rate of 40% or more and less than 70%) | 4 (Herbicidal rate of 70% or more and less than 90%) | 0 (Herbicidal rate of 5% or less (almost no effect)) | 1 (Herbicidal rate of 5% or more and less than 20%) | 3 (Herbicidal rate of 40% or more and less than 70%) | 2 (Herbicidal rate of 20% or more and less than 40%) | 3 (Herbicidal rate of 40% or more and less than 70%) | 3 (Herbicidal rate of 40% or more and less than 70%) | 3 (Herbicidal rate of 40% or more and less than 70%) | 2 (Herbicidal rate of 20% or more and less than 40%)
CCCC(=O)Oc1c(C)nn(C)c(=O)c1-c1c(-c2ccc3c(c2)OCCO3)oc2ccc(C)cc12 [9-013] | 5 (Herbicidal rate of 90% or more (almost completely withered)) | 0 (Herbicidal rate of 5% or less (almost no effect)) | 3 (Herbicidal rate of 40% or more and less than 70%) | 2 (Herbicidal rate of 20% or more and less than 40%) | 0 (Herbicidal rate of 5% or less (almost no effect)) | 4 (Herbicidal rate of 70% or more and less than 90%) | 5 (Herbicidal rate of 90% or more (almost completely withered)) | 3 (Herbicidal rate of 40% or more and less than 70%) | 1 (Herbicidal rate of 5% or more and less than 20%) | 0 (Herbicidal rate of 5% or less (almost no effect)) | 0 (Herbicidal rate of 5% or less (almost no effect)) | 3 (Herbicidal rate of 40% or more and less than 70%) | 2 (Herbicidal rate of 20% or more and less than 40%) | 0 (Herbicidal rate of 5% or less (almost no effect)) | 0 (Herbicidal rate of 5% or less (almost no effect)) | 0 (Herbicidal rate of 5% or less (almost no effect)) | 0 (Herbicidal rate of 5% or less (almost no effect))
Cc1nn(C)c(=O)c(-c2c(-c3ccc(OCC(C)C)cc3)oc3ccc(F)cc23)c1O [9-027] | 5 (Herbicidal rate of 90% or more (almost completely withered)) | 2 (Herbicidal rate of 20% or more and less than 40%) | 5 (Herbicidal rate of 90% or more (almost completely withered)) | 5 (Herbicidal rate of 90% or more (almost completely withered)) | 5 (Herbicidal rate of 90% or more (almost completely withered)) | 5 (Herbicidal rate of 90% or more (almost completely withered)) | 5 (Herbicidal rate of 90% or more (almost completely withered)) | 5 (Herbicidal rate of 90% or more (almost completely withered)) | 5 (Herbicidal rate of 90% or more (almost completely withered)) | 4 (Herbicidal rate of 70% or more and less than 90%) | 4 (Herbicidal rate of 70% or more and less than 90%) | 5 (Herbicidal rate of 90% or more (almost completely withered)) | 5 (Herbicidal rate of 90% or more (almost completely withered)) | 5 (Herbicidal rate of 90% or more (almost completely withered)) | 5 (Herbicidal rate of 90% or more (almost completely withered)) | 1 (Herbicidal rate of 5% or more and less than 20%) | 5 (Herbicidal rate of 90% or more (almost completely withered))
